Measurements published in patent US10232043B2, “Photoactivated molecules for light-induced modulation of the activity of electrically excitable cells and methods of using the same” (UNIVERSITY OF SOUTHERN CALIFORNIA, priority 2015, dated 2019).
Entries after “also recorded” stand apart in the source; their conditions may differ.

Assays:
[1] = system: INS, HEK293T and chromaffin cells; test: Imaging RubpyC17 in live cells (membrane integration); format: cell-based, rat, human, mouse
Procedure: Cells were imaged at 1-3 days after plating. The glass-bottomed chambers with adherent cells were washed twice with PBS and then filled with standard extracellular solution consisting of 140 mM NaCl, 2.8 mM KCl: 10 mM HEPES, 1 mM MgCl2, 2 mM CaCl2, and 10 mM glucose, pH adjusted to 7.2-7.4 and osmolarity adjusted to 290-310 mOsm. The chamber was then mounted on an Olympus IX70 inverted microscope stage for imaging, using a Cascade 512B EMCCD camera, operated by Metamorph software. Initial imaging was done with, cells in extracellular solution without RubpyC17, first under brightfield to evaluate cell health and morphology, then under widefield argon ion laser illumination at 488 nm (Coherent, Innova 90-5, Santa Clara, Calif.), to evaluate autofluorescence. Next, the extracellular solution was removed and replaced with extracellular solution containing the RubpyC17 compound (10 μM in <0.01% DMSO, final concentrations). Cell images were then acquired with illumination at 488 nm (collected with a long-pass red emission filter). For electrophysiological experiments, RubpyC17 compound was added to the extracellular solution (2-10 μM in <0.01% DMSO, final concentrations as indicated) and cells were incubated for 1.5-45 min, as indicated, then washed with extracellular solution without RubpyC17. Some chromaffin cells were also exposed continuously to 490-900 nM RubpyC17-containing extracellular solution.
Illustrated here are rat insulinoma INS cells (see FIG. 17C, top), human embryonic kidney (HEK293T) cells (see FIG. 17C, middle), and primary cultured mouse chromaffin cells (see FIG. 17C, bottom). […] All cell types preserved morphology for at least 10 minutes. […] One embodiment of the possible light-induced electron transfer is depicted in FIG. 2.

RCS rats [2] = test: Pupillary light response after eye injection; format: in vivo, rat
Description: FIG. 28 illustrates the pupillary light response in RCS rats.
(§1) This finding was reproduced in 3 of 3 RCS rats injected with Rubpy-C17, and in 2 of 2 control (sham injection) RCS rats.

HEK293T cells = test: Voltage-clamp membrane current under light; format: cell-based, human; settings: approximately −80 mV
Procedure: To examine whether light-activated RubpyC17 can directly interact and open or block endogenous ion channels, HEK293T cells were preincubated with RubpyC17, and patch-clamped in a voltage-clamp configuration. Voltage-clamp configuration allowed the cells to be clamped at a potential where most voltage-gated ion channels are closed (approximately −80 mV). […] The current-voltage relationship (see FIGS. 21C and 21D) as well as the steady-state voltage-dependent activation curves of RubpyC17-treated chromaffin cells in voltage-clamp mode before and during light illumination (see FIG. 21E).

RCS rats [3] = test: Histology of the retina after injection; format: in vivo, rat; settings: 3 days after injection, preliminary
Description: as §1

[4] = system: whole-mount retinas from RCS rats; test: Whole-mount retina multi-electrode recording; format: cell-based, rat; settings: photoreceptor-degenerate retina, 100 micromolar for 30 minutes, 480 nm
Description: FIG. 26 illustrates data from whole-mount retinas from RCS rats. […] Each bin represents the frequency of spikes for 1 second. Before Rubpy treatment (14A), illumination at 480 nm elicited minimal change in spike frequency. […] Downward arrows mark the time of 100 ms (1st) and 1 second (2nd to fourth) light stimuli
The retina will be freshly dissected from Royal College of Surgeons (RCS) rats (9 months or older to ensure total loss of photoreceptors). The whole-mount retina will then be placed onto a multi-electrode array with the ganglion cell layer side facing the electrodes and is held down on the array using a lightly weighted porous membrane. Extracellular field potentials are recorded from 15 or 75 μm diameter electrodes using an MEA1060-Up amplifier and MC Rack software (Multi-Channel Systems). The activity of the retinal in response to illumination is monitored before and after PVN incubation. The retina is continuously perfused with oxygenated (95% O2, 5% CO2), heated (32C) Ames' Medium for baseline activity. The retina is then perfused with Ames' Medium containing PVN for 30 min to 1 hr, followed by 10 min wash with regular Ames' Medium before recording in Ames' Medium with 5-10 mM ascorbate. The retina will be illuminated by white LED light through a bandpass excitation filter (460-500 nm) with durations of 100 μs, 1 ms, 10 ms, 100 ms, […] and 30 s. […]

[5] = system: cell lines and primary cells; test: Cell tolerance to RubpyC17 incubation (gigaseal stability, viability); format: cell-based
Procedure: However, in several embodiments, other organic ligands coupled to other transition metals are also used, with reduced and/or non-existent adverse side effects. […] Excessive and prolonged whole cell incubation with RubpyC17 (e.g., >10 μM for >5 min) may result in cell toxicity, since a stable gigaseal cannot be stably maintained in those cells. At this time, the mechanism behind the adverse effects on cell health upon RubpyC17 overexposure is not yet fully known. Since perforation was not achieved when a small patch of membrane was exposed to a high dose of RupbyC17, it was hypothesized that when an entire cell is overexposed to RubpyC17, there may be sufficient random interactions between excess RubpyC17 complex and endogenous surface molecules (i.e., proteins, carbohydrates, sugars), triggering signals that lead to cell health deterioration. However, when used in its appropriate dose range (e.g., <about 10 μM for cell lines and <about 2 μM for primary cells, according to one embodiment), RubpyC17 is tolerated by cells and consistently confers light sensitivity.

[6] = aqueous solution; cited from earlier work
[7] = system: endogenous ion channels of chromaffin cells; test: Voltage-clamp current-voltage relationship and steady-state activation; format: cell-based, mouse; settings: before and during light illumination
Description: FIGS. 21A-21H depict data from various experiments related to characteristics of RubpyC17-loaded cells. […] Inset images shown to the right of trace confirmed proper integration of RubpyC17 in patched cells. FIGS. 21C-21E show the light-induced action potential firing in chromaffin cells was not due to biophysical changes in voltage-gated ion channels as there were no significant changes in current-voltage relationships (21C-21D) nor in steady-state activation curve (21E) in RubpyC17-loaded chromaffin cells before (open circle) or during (open circle) light illumination. […] Peak inward currents from each stimulation jump were plotted against corresponding stimulating voltages (n=6). […] Data from representative cell is shown (n=5). […] Currents resulting from capacitor-like behavior of chromaffin cell membranes during hyperpolarizing jumps to −85 mV from a resting membrane potential of −80 mV were recorded 5 min following giga-seal formation for amphoterecin B (bottom trace) or 10 min following giga-seal formation for RubpyC17 (top trace).
To examine whether light-activated RubpyC17 can directly interact and open or block endogenous ion channels, HEK293T cells were preincubated with RubpyC17, and patch-clamped in a voltage-clamp configuration. […]

CCCCCCCCCCCCCCCCCc1ccnc(-c2cc(C)ccn2)c1.F[P-](F)(F)(F)(F)F.F[P-](F)(F)(F)(F)F.[Ru+2].c1ccc(-c2ccccn2)nc1.c1ccc(-c2ccccn2)nc1 [RubpyC17, [Ru(bpy)2(bpy-C17)](PF6)2]
time for which all cell types preserved morphology ([1]; 10 μM RubpyC17): at least 10 minutes
incorporation into cell membranes (plasma membrane-localized luminescence) ([1]; 10 μM in bath, INS, HEK293T, mouse chromaffin cells): rapidly and stably incorporates into mammalian cell membranes
membrane luminescence after RubpyC17 removal from the bath solution ([1]; at 10 minutes after removal): still observed
pupillary light reflex in injected eye (RCS rats [2]; RCS rat, not in non-injected eye): vigorous pupillary light reflex was observed; also recorded: pupil constricts
time of pupillary light reflex (RCS rats [2]; injected eye): < 3 s
light-induced changes in membrane current (HEK293T cells): did not exhibit light-induced changes in membrane current
retinal histology / pathology (RCS rats [3]): no evidence of retinal cell death or white blood cell infiltrates; also recorded: absence of obvious signs of deleterious effects
light-induced action potential firing / spike frequency ([4]; listed as Rubpy): spike frequency increased
light-induced action potential firing / spike frequency ([4]; listed as Rubpy-C17): respond to illumination by firing action potentials
dose range tolerated by cells ([5]; cell lines): < 10 µM
viability after incubation ([5]; chromaffin cells, ~30 min with RubpyC17): continued viability of chromaffin cells
whole cell incubation concentration that may result in cell toxicity ([5]; for >5 min, stable gigaseal not maintained): > 10 µM
dose range tolerated by cells ([5]; primary cells): < 2 µM
electron transfer rate ket to oxidant ferricyanide [6]: ~6.5e+09 M⁻¹ s⁻¹
biophysical properties of endogenous ion channels [7]: does not alter the biophysical properties of endogenous ion channels
